Literature values in patent US8748086B2, “Aqueous solution for the preservation of tissues and organs” (Universidad de Barcelona, priority 2008, dated 2014).

Columns and labels:
[1] = tested on: non-steatotic and steatotic livers; conditions: prolonged ischemic periods; Ben Mosbah et al. 2006
hearts = conditions: tacrolimus in UW preservation solution; Rajesh et al. 2003

Compound	capacity of the preservation solution to protect livers [1]	effect on preservation of hearts (hearts)
COc1ccc(CN2CCNCC2)c(OC)c1OC [trimetazidine]	improved the capacity of this standard preservation solution to protect	–
C=CC[C@@H]1/C=C(\C)C[C@H](C)C[C@H](OC)[C@H]2O[C@@](O)(C(=O)C(=O)N3CCCC[C@H]3C(=O)O[C@H](/C(C)=C/[C@@H]3CC[C@@H](O)[C@H](OC)C3)[C@H](C)[C@@H](O)CC1=O)[C@H](C)C[C@@H]2OC [tacrolimus, Tacrolimus]	–	failed to have any effect on preservation
